Source: publication PMC10615177 (ACS infectious diseases, 2023)
In brackets after ≈: the same amount, converted by molar mass. Read-outs that look alike come from different tables or passages of the source.

How the values were obtained:
[1] = system: M. tuberculosis Erdman; assay: M. tuberculosis Erdman growth inhibition; format: cell-based, Mycobacterium tuberculosis; settings: for MIC: Mycobacterium tuberculosis, ERDMAN, read-out: Mtb Erdman MIC
[2] = system: M. tuberculosis HN878; assay: M. tuberculosis HN878 growth inhibition; format: cell-based, Mycobacterium tuberculosis; settings: for MIC: HN878, read-out: Mtb HN878 MIC
[3] = system: M. smegmatis; assay: M. smegmatis cell growth inhibition; format: cell-based, Mycobacterium smegmatis
[4] = DSC of DMPC bilayers with inhibitor; format: physicochemical; settings: for Tm (main transition) / ΔH / ΔT1/2: 10 wt % inhibitor, PBS pH 7.4, heating
[5] = target: M. tuberculosis MmpL3 (MtMmpL3) (Mycobacterium tuberculosis, UniProt P9WJV5); assay: Surface plasmon resonance binding to MmpL3
Sequence of M. tuberculosis MmpL3 (MtMmpL3) (P9WJV5 whole entry): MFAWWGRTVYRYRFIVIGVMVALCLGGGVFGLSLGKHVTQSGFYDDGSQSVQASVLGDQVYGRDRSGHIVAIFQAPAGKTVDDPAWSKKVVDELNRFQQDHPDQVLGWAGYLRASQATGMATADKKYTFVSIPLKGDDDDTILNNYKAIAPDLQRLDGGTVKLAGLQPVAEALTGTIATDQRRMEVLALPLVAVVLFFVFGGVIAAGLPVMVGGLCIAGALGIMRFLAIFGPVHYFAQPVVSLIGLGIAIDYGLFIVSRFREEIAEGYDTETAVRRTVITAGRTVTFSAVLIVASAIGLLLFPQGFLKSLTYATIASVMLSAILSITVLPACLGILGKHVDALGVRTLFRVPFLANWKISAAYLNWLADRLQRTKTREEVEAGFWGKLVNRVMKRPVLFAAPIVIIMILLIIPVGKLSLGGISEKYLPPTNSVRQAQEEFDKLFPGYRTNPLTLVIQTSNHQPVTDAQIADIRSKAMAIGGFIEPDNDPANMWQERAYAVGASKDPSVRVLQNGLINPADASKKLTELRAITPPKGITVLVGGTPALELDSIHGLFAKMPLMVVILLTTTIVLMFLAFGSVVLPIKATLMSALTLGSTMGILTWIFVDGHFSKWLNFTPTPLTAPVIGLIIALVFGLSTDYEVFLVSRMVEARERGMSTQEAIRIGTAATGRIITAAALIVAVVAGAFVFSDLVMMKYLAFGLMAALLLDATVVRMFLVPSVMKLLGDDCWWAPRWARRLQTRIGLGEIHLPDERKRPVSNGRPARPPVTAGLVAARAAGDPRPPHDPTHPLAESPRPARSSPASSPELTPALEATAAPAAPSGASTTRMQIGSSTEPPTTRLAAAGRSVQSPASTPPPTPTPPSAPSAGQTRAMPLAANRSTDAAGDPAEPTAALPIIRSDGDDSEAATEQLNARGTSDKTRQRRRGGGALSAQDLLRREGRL

[6] = system: T. cruzi Dm28c intracellular amastigotes; assay: T. cruzi intracellular amastigote inhibition; format: cell-based, Trypanosoma cruzi; settings: read-out: T. cruzi IC50 (PAR)
[7] = system: L. donovani promastigotes; assay: L. donovani promastigote growth inhibition; format: cell-based, Leishmania donovani; settings: read-out: L. donovani IC50
[8] = system: Bacillus subtilis; assay: B. subtilis growth inhibition; format: cell-based; settings: read-out: Bs IC50
[9] = system: M. tuberculosis H37Rv; assay: M. tuberculosis H37Rv growth inhibition; format: cell-based, Mycobacterium tuberculosis; settings: for MIC: Mycobacterium tuberculosis, H37RV, read-out: Mtb H37Rv MIC
[10] = system: M. abscessus smooth variant; assay: microbe, parasite or virus in culture; format: cell-based
[11] = system: T. cruzi Dm28c epimastigotes; assay: T. cruzi epimastigote growth inhibition; format: cell-based, Trypanosoma cruzi; settings: read-out: T. cruzi IC50 (EPI)
[12] = in vitro; settings: human
[13] = system: Plasmodium falciparum asexual blood stages; assay: P. falciparum asexual blood stage; format: cell-based; settings: for IC50: Plasmodium falciparum, read-out: PfABS IC50 (μM ± S.E.), asexual blood stages
[14] = DSC of DSPG bilayers with inhibitor; format: physicochemical; settings: for Tm (main transition) / ΔH / ΔT1/2: 10 wt % inhibitor, PBS pH 7.4, heating
[15] = in vitro; settings: human; remark: listed apart in the source
[16] = system: E. coli; assay: E. coli growth inhibition; format: cell-based, Escherichia coli; settings: for IC50: read-out: Ec IC50
[17] = system: T. brucei bloodstream forms; assay: T. brucei bloodstream form growth inhibition; format: cell-based, Trypanosoma brucei; settings: read-out: T. brucei IC50
[18] = system: M. abscessus rough variant; assay: microbe, parasite or virus in culture; format: cell-based
[19] = system: U2OS host cells; assay: U2OS host cell growth inhibition; settings: read-out: T. cruzi CC50 (U20S)
[20] = system: L. mexicana promastigotes; assay: L. mexicana promastigote growth inhibition; format: cell-based, Leishmania mexicana; settings: Leishmania mexicana, read-out: L. mexicana IC50, promastigotes
[21] = Mycobacterium tuberculosis, HN878, read-out: Mtb HN878 IC50, dose-response curves
[22] = read-out: Mtb HN878 IC50, dose-response curves
[23] = Mycolicibacterium smegmatis, read-out: Ms IC50, M. smegmatis
[24] = KD, 1:1 model, 1:1 binding model, from ratio of rate constants
[25] = KD, 2-state, two-state model, from rate constants

CCC1(NCCNCC=C(C)CCC=C(C)C)C2CC3CC(C2)CC1C3 (stereo not shown) [Compound 8c, N-(3,7-dimethylocta-2,6-dien-1-yl)-N′-(2-ethyladamantan-2-yl)ethane-1,2-diamine]
MIC [1]: 6.8 µM (≈ 2.44 µg/mL)
IC50 [2, 21]: 2 to 3 µM
MIC ([2]; Mycobacterium tuberculosis): 1.6 µM (≈ 0.574 µg/mL)
IC50 [2, 22]: 1.9 ± 0.06 µM
IC50 [3, 23]: 4 µM
Tm (main transition) [4]: 16.9 °C
ΔH [4]: 5.74 kcal/mol
ΔT1/2 [4]: 2.0 °C
Decrease of Tm compared to DMPC without inhibitor ([4]; heating): ~6.6 °C
koff [5]: 0.841 s⁻¹
kon [5]: 4710 M⁻¹ s⁻¹
Kd [5, 24]: 180 µM
Kd [5, 25]: 190 µM
ka1 ([5]; two-state model): 5473 M⁻¹ s⁻¹
ka2 ([5]; two-state model): 0.006994 s⁻¹
kd1 ([5]; two-state model): 1.284 s⁻¹
kd2 ([5]; two-state model): 0.03012 s⁻¹
IC50 ([6]; Trypanosoma cruzi, U2OS): 1.3 ± 0.06 µM
IC50 ([7]; Leishmania donovani): 2.1 ± 0.4 µM
IC50 ([8]; Bacillus subtilis): 4.3 µM
MIC [9]: 6.8 µM (≈ 2.44 µg/mL)
MIC ([10]; Mycobacteroides abscessus, read-out: Ma(S) MIC): 22 µM (≈ 7.89 µg/mL)
IC50 ([11]; Trypanosoma cruzi): 8 ± 2 µM
viability at 2 µM [12]: 85%
viability at 20 µM [12]: 43%
IC50 [13]: 0.16 ± 0.07 µM
Increased potency against PfABS compared to SQ109 ([13]; versus SQ109 1.6 μM): ~ 10 fold
Tm (main transition) [14]: 51.9 °C
ΔH [14]: 11.9 kcal/mol
ΔT1/2 [14]: 2.5 °C
Broadening of main transition peak ΔΤ1/2 compared to pure DSPG ([14]; heating): 0.2–1.6 °C
CC50 [15]: 2.5 ± 0.3 µM
IC50 ([16]; Escherichia coli): 18 µM
IC50 ([17]; Trypanosoma brucei): 1.4 ± 0.2 µM
MIC ([18]; Mycobacteroides abscessus, read-out: Ma(R) MIC): 10.7 µM (≈ 3.84 µg/mL)

CCCCCCC1(NCCNCC=C(C)CCC=C(C)C)C2CC3CC(C2)CC1C3 (stereo not shown) [Compound 8f, N-(3,7-dimethylocta-2,6-dien-1-yl)-N´-(2-hexyladamantan-2-yl)ethane-1,2-diamine]
Mtb Erdman MIC [1]: 12 µM
IC50 [2, 22]: 3.4 ± 0.6 µM
Mtb HN878 MIC ([2]; visual inspection): 3 µM
IC50 ([3]; read-out: Ms IC50, M. smegmatis): 4.7 µM
Tm (main transition) [4]: 13.8 °C
ΔH [4]: 5.88 kcal/mol
ΔT1/2 [4]: 5.1 °C
Broadening of main transition peak ΔΤ1/2 compared to pure DMPC ([4]; heating): 4.4 °C
Decrease of Tm compared to DMPC without inhibitor ([4]; heating): ~9.7 °C
koff ([5]; 1:1 Langmuir binding model): 0.2964 s⁻¹
Kd ([5]; read-out: KD, 1:1 model, 1:1 binding model, from ratio of rate constants): 67 µM
Kd ([5]; read-out: KD, 2-state, two-state model, from rate constants): 81 µM
ka1 ([5]; two-state model): 4642 M⁻¹ s⁻¹
ka2 ([5]; two-state model): 0.008637 s⁻¹
kd1 ([5]; two-state model): 0.4552 s⁻¹
kd2 ([5]; two-state model): 0.03992 s⁻¹
IC50 ([6]; intracellular amastigotes in U2OS host cells): 1.3 ± 0.07 µM
IC50 ([7]; promastigotes): 8.8 ± 0.4 µM
IC50 [8]: 1 µM
Mtb H37Rv MIC [9]: 12 µM
Ma(S) MIC [10]: 12 µM
CC50 [19]: 4.1 ± 1 µM
IC50 ([11]; epimastigotes): 8.2 ± 0.4 µM
Tm (main transition) [14]: 49.1 °C
ΔH [14]: 8.75 kcal/mol
ΔT1/2 [14]: 1.7 °C
Broadening of main transition peak ΔΤ1/2 compared to pure DSPG ([14]; heating): 0.2–1.6 °C
Decrease of Tm compared to DSPG alone ([14]; heating): ~ 5 °C
IC50 [16]: 9.2 µM
IC50 ([17]; bloodstream forms): 0.98 ± 0.09 µM
Ma(R) MIC [18]: 12 µM

CC(C)=CCCC(C)=CCNCC(=O)NC(C)(C)C12CC3CC(CC(C3)C1)C2 [Compound 11, N-(2-(adamantan-1-yl)propan-2-yl)-2-((3,7-dimethylocta-2,6-dien-1-yl)amino)acetamide]
MIC [1]: 19 µM (≈ 7.35 µg/mL)
IC50 [2, 21]: 13 ± 2 µM
MIC ([2]; Mycobacterium tuberculosis): 12.5 µM (≈ 4.83 µg/mL)
IC50 [3, 23]: 44 ± 4 µM
IC50 ([6]; Trypanosoma cruzi, U2OS): 4.4 ± 0.3 µM
IC50 ([7]; Leishmania donovani): 5 ± 0.6 µM
MIC [9]: 19 µM (≈ 7.35 µg/mL)
IC50 ([11]; Trypanosoma cruzi): 16 ± 4 µM
viability at 20 µM [12]: 100%
IC50 [13]: 7.63 ± 1.13 µM
IC50 [20]: 5.2 ± 0.2 µM
CC50 [15]: 6.9 ± 0.1 µM
Ec IC50 [16]: No inhibition
IC50 ([17]; Trypanosoma brucei): 6.2 ± 0.2 µM

CC(C)=CCCC(C)=CCNC(=O)CNC1(C)C2CC3CC(C2)CC1C3 (stereo not shown) [Compound 14b, N-(3,7-dimethylocta-2,6-dien-1-yl)-2-((2-methyl-2-adamantanyl)amino)acetamide]
MIC [1]: 20 µM (≈ 7.17 µg/mL)
IC50 [2, 21]: 4.9 ± 0.1 µM
MIC ([2]; Mycobacterium tuberculosis): 6.25 µM (≈ 2.24 µg/mL)
IC50 [3, 23]: 9 µM
koff [5]: 0.751 s⁻¹
kon [5]: 1760 M⁻¹ s⁻¹
Kd [5, 24]: 426 µM
Kd [5, 25]: 531 µM
ka1 ([5]; two-state model): 1917 M⁻¹ s⁻¹
ka2 ([5]; two-state model): 0.009268 s⁻¹
kd1 ([5]; two-state model): 1.363 s⁻¹
kd2 ([5]; two-state model): 0.02741 s⁻¹
IC50 ([6]; Trypanosoma cruzi, U2OS): 2.3 ± 0.2 µM
IC50 ([7]; Leishmania donovani): 11 ± 0.9 µM
MIC [9]: 30 µM (≈ 10.8 µg/mL)
IC50 ([11]; Trypanosoma cruzi): 18 ± 4 µM
viability at 20 µM [12]: 94%
IC50 [13]: 6.47 ± 0.65 µM
IC50 [20]: 2.4 ± 0.7 µM
CC50 [15]: 7.2 ± 0.9 µM
Ec IC50 [16]: No inhibition
IC50 ([17]; Trypanosoma brucei): 6.6 ± 0.03 µM

CCCC1(NCC(=O)NCC=C(C)CCC=C(C)C)C2CC3CC(C2)CC1C3 (stereo not shown) [Compound 14d, N-(3,7-dimethylocta-2,6-dien-1-yl)-2-((2-propyladamantan-2-yl)amino)acetamide]
MIC [1]: 32 µM (≈ 12.4 µg/mL)
IC50 [2, 21]: > 25 µM
MIC ([2]; Mycobacterium tuberculosis): 25 µM (≈ 9.67 µg/mL)
IC50 [3, 23]: 49 ± 5 µM
koff [5]: 0.754 s⁻¹
kon [5]: 3000 M⁻¹ s⁻¹
Kd [5, 24]: 252 µM
Kd [5, 25]: 267 µM
ka1 ([5]; two-state model): 3277 M⁻¹ s⁻¹
ka2 ([5]; two-state model): 0.005907 s⁻¹
kd1 ([5]; two-state model): 1.04 s⁻¹
kd2 ([5]; two-state model): 0.03103 s⁻¹
IC50 ([6]; Trypanosoma cruzi, U2OS): 2.8 ± 0.3 µM
IC50 ([7]; Leishmania donovani): 8.4 ± 2 µM
MIC [9]: 32 µM (≈ 12.4 µg/mL)
IC50 ([11]; Trypanosoma cruzi): 14 ± 5 µM
viability at 20 µM [12]: 100%
IC50 [13]: 5.27 ± 0.41 µM
IC50 [20]: 0.73 ± 0.2 µM
CC50 [15]: 9.1 ± 0.4 µM
Ec IC50 [16]: No inhibition
IC50 ([17]; Trypanosoma brucei): 2.3 ± 0.1 µM

CC(C)=CCCC(C)=CCNC(=O)CNC(C)(C)C12CC3CC(CC(C3)C1)C2 [Compound 15, 2-((2-(Adamantan-1-yl)propan-2-yl)amino)-N-(3,7-dimethylocta-2,6-dien-1-yl)acetamide]
MIC [1]: 38 µM (≈ 14.7 µg/mL)
IC50 [2, 21]: 17 ± 6 µM
MIC ([2]; Mycobacterium tuberculosis): 12.5 µM (≈ 4.83 µg/mL)
IC50 [3, 23]: 31 ± 3 µM
IC50 ([6]; Trypanosoma cruzi, U2OS): 2.6 ± 0.1 µM
IC50 ([7]; Leishmania donovani): 12 ± 8 µM
MIC [9]: 38 µM (≈ 14.7 µg/mL)
IC50 ([11]; Trypanosoma cruzi): 15 ± 3 µM
viability at 2 µM [12]: 91%
viability at 20 µM [12]: 76%
IC50 [13]: 5.44 ± 0.32 µM
IC50 [20]: 5 ± 0.1 µM
CC50 [15]: 7.1 ± 0.5 µM
Ec IC50 [16]: No inhibition
IC50 ([17]; Trypanosoma brucei): 5.9 ± 0.1 µM
